# Compound: CC1=C(N=C(N=C1N)[C@H](CC(=O)N)NC[C@@H](C(=O)N)N)C(=O)N[C@@H]([C@H](C2=CN=CN2)OC3C(C(C(C(O3)CO)O)O)OC4C(C(C(C(O4)CO)O)OC(=O)N)O)C(=O)N[C@H](C)[C@H]([C@H](C)C(=O)N[C@@H]([C@@H](C)O)C(=O)NCCC5=NC(=CS5)C6=NC(=CS6)C(=O)NCCC[S+](C)C)O [Bleomycin] + COc1cc2c(Oc3ccc(NC(=O)C4(C(=O)Nc5ccc(F)cc5)CC4)cc3F)ccnc2cc1OCCCN1CCOCC1 [Foretinib] (partner 0.25 µM)
# Assay: relative viability (nuclei count vs DMSO), 5 days (fraction); higher = more cells survive
# Conditions: first compound 0.01 µM; main component drawn
# How it was run: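 A single step with final 0.05% Triton X-100, 1% formaldehyde and 1 ug/ml Hoechst fixed the cells and stained nuclei 5 days after treatment. Lung cancer cell lines in 1536-well plates had been treated by pin tool the day after seeding with one drug alone or a fixed anchor-drug dose plus five library-drug doses (not always all listed) in √10 steps, and nuclei were counted on 4× images. Relative viability is the ratio of nuclei in treated wells to nuclei in vehicle wells, taken as the median of duplicate plates.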
row,Cell Line,relative viability
1,LK-2,0.803
2,NCI-H2126,1.17
3,H3255,0.705
4,LOU-NH91,0.781
5,NCI-H2170,0.992
6,NCI-H3122,0.956
7,HOP-62,0.596
8,LU99A,0.683
9,BEN,0.626
10,HARA,0.794
11,HCC-78,0.533
12,NCI-H441,0.72
13,LCLC-97TM1,0.912
14,A-427,0.862
15,NCI-H460,0.68
16,NCI-H727,0.902
17,NCI-H1734,0.773
18,NCI-H2405,0.929
19,NCI-H1395,0.886
20,201T,0.902
21,NCI-H1915,0.929
22,HCC-827,0.955
23,LXF-289,0.933
24,NCI-H2347,0.852
25,NCI-H650,0.837
26,CAL-12T,0.993
27,NCI-H1651,0.716
28,EPLC-272H,0.61
29,NCI-H23,0.699

# Same assay, conditions: first compound 0.03162 µM; main component drawn
row,Cell Line,relative viability
1,LK-2,0.779
2,NCI-H2126,1.26
3,H3255,0.813
4,LOU-NH91,0.663
5,NCI-H2170,0.98
6,NCI-H3122,0.99
7,HOP-62,0.458
8,LU99A,0.64
9,BEN,0.582
10,HARA,0.793
11,HCC-78,0.519
12,NCI-H441,0.613
13,LCLC-97TM1,0.809
14,A-427,0.873
15,NCI-H460,0.651
16,NCI-H727,0.711
17,NCI-H1734,0.564
18,NCI-H2405,1.04
19,NCI-H1395,0.932
20,201T,0.928
21,NCI-H1915,0.885
22,HCC-827,1.22
23,LXF-289,0.888
24,NCI-H2347,0.97
25,NCI-H650,0.915
26,CAL-12T,0.706
27,NCI-H1651,0.499
28,EPLC-272H,0.653
29,NCI-H23,0.586

# Same assay, conditions: first compound 0.1 µM; main component drawn
row,Cell Line,relative viability
1,LK-2,0.743
2,NCI-H2126,1.23
3,H3255,0.699
4,LOU-NH91,0.649
5,NCI-H2170,0.736
6,NCI-H3122,0.914
7,HOP-62,0.39
8,LU99A,0.503
9,BEN,0.587
10,HARA,0.777
11,HCC-78,0.534
12,NCI-H441,1.08
13,LCLC-97TM1,0.628
14,A-427,0.935
15,NCI-H460,0.283
16,NCI-H727,0.641
17,NCI-H1734,0.631
18,NCI-H2405,0.992
19,NCI-H1395,0.827
20,201T,0.825
21,NCI-H1915,0.763
22,HCC-827,0.913
23,LXF-289,0.804
24,NCI-H2347,0.628
25,NCI-H650,0.823
26,CAL-12T,0.579
27,NCI-H1651,0.496
28,EPLC-272H,0.51
29,NCI-H23,0.408

# Same assay, conditions: first compound 0.3162 µM; main component drawn
row,Cell Line,relative viability
1,LK-2,0.36
2,NCI-H2126,0.903
3,H3255,0.553
4,LOU-NH91,0.4
5,NCI-H2170,0.855
6,NCI-H3122,0.483
7,HOP-62,0.193
8,LU99A,0.297
9,BEN,0.379
10,HARA,0.397
11,HCC-78,0.399
12,NCI-H441,0.623
13,LCLC-97TM1,0.274
14,A-427,0.481
15,NCI-H460,0.0633
16,NCI-H1734,0.344
17,NCI-H2405,0.796
18,NCI-H1395,0.672
19,201T,0.548
20,NCI-H1915,0.431
21,HCC-827,0.558
22,LXF-289,0.36
23,NCI-H2347,0.319
24,NCI-H650,0.564
25,CAL-12T,0.199
26,NCI-H1651,0.31
27,EPLC-272H,0.17
28,NCI-H23,0.247

# Same assay, conditions: first compound 1 µM; main component drawn
row,Cell Line,relative viability
1,LK-2,0.285
2,NCI-H2126,0.491
3,H3255,0.432
4,LOU-NH91,0.309
5,NCI-H2170,0.829
6,NCI-H3122,0.357
7,HOP-62,0.127
8,LU99A,0.19
9,BEN,0.329
10,HARA,0.379
11,HCC-78,0.507
12,NCI-H441,0.46
13,LCLC-97TM1,0.176
14,A-427,0.284
15,NCI-H460,0.0375
16,NCI-H727,0.705
17,NCI-H1734,0.228
18,NCI-H2405,0.585
19,NCI-H1395,0.497
20,201T,0.336
21,NCI-H1915,0.257
22,HCC-827,0.266
23,LXF-289,0.14
24,NCI-H2347,0.692
25,NCI-H650,0.288
26,CAL-12T,0.174
27,NCI-H1651,0.213
28,EPLC-272H,0.1
